The values that follow come from patent US11446287B2, “Compounds and methods for EP300 or CBP modulation and indications therefor” (Opna Immuno-Oncology SA, priority 2019, dated 2022).

This test deals with T1, Recombinant human BRD4 containing dual bromodomains (BRD4-BD12 (1-477)) (Homo sapiens, UniProt O60885).
T1 construct: Recombinant human BRD4 containing dual bromodomains (BRD4-BD12 (1-477)); made in house; host or cells: E. coli BL21-CodonPlus (DE3), modified pET vector
The experiment in a line: BRD4 Alphascreen binding assay. The gist of the method: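 His-tagged human BRD4 tandem bromodomains (1-477, E. coli) incubated 1 h at room temperature with biotinylated tetra-acetylated H4 (1-21) peptide and compound in HEPES pH 7.5 buffer with 2 mM DTT. AlphaScreen signal read 30 min after adding beads (7.5 μg/ml); IC50 from four-parameter fit after normalization to controls.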

On to `Cc1noc(C)c1-c1cnc2c(c1)c(-c1ccc(C(=O)O)cc1)cn2C(C)c1ncccn1` (stereo not drawn) [P-0013, 4-(5-(3,5-dimethylisoxazol-4-yl)-1-(1-(pyrimidin-2-yl)ethyl)-1H-pyrrolo[2,3-b]pyridin-3-yl)benzoic acid], for which the IC50 was 8 to 1000 µM.

With `Cc1noc(C)c1-c1cnc2c(c1)c(-c1ccc(C(=O)O)cc1)cn2C(C)c1ccc(F)cn1` (stereo not drawn) [P-0014, 4-(5-(3,5-dimethylisoxazol-4-yl)-1-(1-(5-fluoropyridin-2-yl)ethyl)-1H-pyrrolo[2,3-b]pyridin-3-yl)benzoic acid], the IC50 was 8 to 1000 µM.

As for `Cc1noc(C)c1-c1cnc2c(c1)c(-c1cccc(C(=O)O)c1)cn2C(c1ccccn1)C1CCCC1` (stereo not drawn) [P-0015, 3-(1-(cyclopentyl(pyridin-2-yl)methyl)-5-(3,5-dimethylisoxazol-4-yl)-1H-pyrrolo[2,3-b]pyridin-3-yl)benzoic acid], the IC50 was in the range of 1 to 8 µM.

In the case of `Cc1noc(C)c1-c1cnc2c(c1)c(-c1ccc(F)c(C(=O)O)c1)cn2C(c1ccccn1)C1CCCC1` (stereo not drawn) [P-0016, 5-(1-(cyclopentyl(pyridin-2-yl)methyl)-5-(3,5-dimethylisoxazol-4-yl)-1H-pyrrolo[2,3-b]pyridin-3-yl)-2-fluorobenzoic acid], the IC50 was in the range of 1 to 8 µM.

Regarding `Cc1noc(C)c1-c1cnc2c(c1)c(-c1ccnc(C(=O)O)c1)cn2C(c1ccccn1)C1CCCC1` (stereo not drawn) [P-0017, 4-(1-(cyclopentyl(pyridin-2-yl)methyl)-5-(3,5-dimethylisoxazol-4-yl)-1H-pyrrolo[2,3-b]pyridin-3-yl)picolinic acid], the IC50 lay in the range of 1 to 8 µM.

In the case of `Cc1noc(C)c1-c1cnc2c(c1)c(-c1cccc(CC(=O)O)c1)cn2C(c1ccccn1)C1CCCC1` (stereo not drawn) [P-0018, 2-(3-(1-(cyclopentyl(pyridin-2-yl)methyl)-5-(3,5-dimethylisoxazol-4-yl)-1H-pyrrolo[2,3-b]pyridin-3-yl)phenyl)acetic acid], the IC50 is 1 to 8 µM.

Take `Cc1noc(C)c1-c1cnc2c(c1)c(-c1ccncc1)cn2C(c1ccccn1)C1CCCC1` (stereo not drawn) [P-0019, 4-(1-(cyclopentyl(pyridin-2-yl)methyl)-3-(pyridin-4-yl)-1H-pyrrolo[2,3-b]pyridin-5-yl)-3,5-dimethylisoxazole]: the IC50 is 1 to 8 µM.

Consider `Cc1noc(C)c1-c1cnc2c(c1)c(-c1ccc(C(=O)O)cc1OC1CC1)cn2[C@@H](C)c1ccccn1` [P-0170, (S)-3-cyclopropoxy-4-(5-(3,5-dimethylisoxazol-4-yl)-1-(1-(pyridin-2-yl)ethyl)-1H-pyrrolo[2,3-b]pyridin-3-yl)benzoic acid], for which the IC50 was in the range of 8 to 1000 µM.

With `Cc1noc(C)c1-c1cnc2c(-c3ccc(C(=O)O)cc3C#CC3CC3)cn([C@@H](C)c3ccccn3)c2c1` [P-0171, (S)-3-(cyclopropylethynyl)-4-(6-(3,5-dimethylisoxazol-4-yl)-1-(1-(pyridin-2-yl)ethyl)-1H-pyrrolo[3,2-b]pyridin-3-yl)benzoic acid], the IC50 was in the range of 0.0001 to 1 µM.

Regarding `COc1ccc(C(=O)O)cc1-c1cn(C(C)(c2ccccn2)c2ccccn2)c2cc(-c3c(C)noc3C)cnc12` [P-0172, 3-(1-(1,1-di(pyridin-2-yl)ethyl)-6-(3,5-dimethylisoxazol-4-yl)-1H-pyrrolo[3,2-b]pyridin-3-yl)-4-methoxybenzoic acid], the IC50 was 1 to 8 µM.

For `CCOc1cc(C(=O)O)cc(OCC)c1-n1cc(-c2cccnc2)c2ncc(-c3c(C)noc3C)cc21` [P-0173, 4-(6-(3,5-dimethylisoxazol-4-yl)-3-(pyridin-3-yl)-1H-pyrrolo[3,2-b]pyridin-1-yl)-3,5-diethoxybenzoic acid], the IC50 was 1 to 8 µM.

In the case of `CCOc1cc(C(=O)O)cc(OC(C)C)c1-c1cn([C@@H](C)c2ccccn2)c2ncc(-c3c(C)noc3C)cc12` [P-0174, (S)-4-(5-(3,5-dimethylisoxazol-4-yl)-1-(1-(pyridin-2-yl)ethyl)-1H-pyrrolo[2,3-b]pyridin-3-yl)-3-ethoxy-5-isopropoxybenzoic acid], the IC50 fell in the range of 8 to 1000 µM.

Turning to `Cc1noc(C)c1-c1cnc2c(c1)c(-c1ccc(C(=O)O)cc1OC(F)(F)F)cn2-c1cccnc1` [P-0175, 4-(5-(3,5-dimethylisoxazol-4-yl)-1-(pyridin-3-yl)-1H-pyrrolo[2,3-b]pyridin-3-yl)-3-(trifluoromethoxy)benzoic acid], the IC50 lay in the range of 1 to 8 µM.

Regarding `COc1ccncc1-n1cc(-c2ccc(C(=O)O)cc2OC(F)(F)F)c2cc(-c3c(C)noc3C)cnc21` [P-0176, 4-(5-(3,5-dimethylisoxazol-4-yl)-1-(4-methoxypyridin-3-yl)-1H-pyrrolo[2,3-b]pyridin-3-yl)-3-(trifluoromethoxy)benzoic acid], the IC50 lay within 1 to 8 µM.

Regarding `Cc1noc(C)c1-c1cnc2c(c1)c(-c1ccc(C(=O)O)cc1OC(F)(F)F)cn2-c1cnccc1Cl` [P-0177, 4-(1-(4-chloropyridin-3-yl)-5-(3,5-dimethylisoxazol-4-yl)-1H-pyrrolo[2,3-b]pyridin-3-yl)-3-(trifluoromethoxy)benzoic acid], the IC50 is 8 to 1000 µM.

For `Cc1noc(C)c1-c1cnc2c(c1)c(-c1ccc(C(=O)O)cc1C#CC1CC1)cn2[C@@H](C)c1ccccn1` [P-0178, (S)-3-(cyclopropylethynyl)-4-(5-(3,5-dimethylisoxazol-4-yl)-1-(1-(pyridin-2-yl)ethyl)-1H-pyrrolo[2,3-b]pyridin-3-yl)benzoic acid], the IC50 fell in the range of 8 to 1000 µM.

In the case of `Cc1noc(C)c1-c1cnc2c(c1)c(-c1ccc(C(=O)O)cc1OC1CCC1)cn2[C@@H](C)c1ccccn1` [P-0179, (S)-3-cyclobutoxy-4-(5-(3,5-dimethylisoxazol-4-yl)-1-(1-(pyridin-2-yl)ethyl)-1H-pyrrolo[2,3-b]pyridin-3-yl)benzoic acid], the IC50 lay within 8 to 1000 µM.

For the compound `Cc1noc(C)c1-c1cnc2c(c1)c(-c1ccc(C(=O)O)cc1OC(F)(F)F)cn2-c1ncccc1C(F)(F)F` [P-0180, 4-(5-(3,5-dimethylisoxazol-4-yl)-1-(3-(trifluoromethyl)pyridin-2-yl)-1H-pyrrolo[2,3-b]pyridin-3-yl)-3-(trifluoromethoxy)benzoic acid], the IC50 lay within 8 to 1000 µM.

Regarding `Cc1noc(C)c1-c1cnc2c(c1)c(-c1ccc(C(=O)O)cc1C1CC1)cn2[C@@H](C)c1ccccn1` [P-0181, (S)-3-cyclopropyl-4-(5-(3,5-dimethylisoxazol-4-yl)-1-(1-(pyridin-2-yl)ethyl)-1H-pyrrolo[2,3-b]pyridin-3-yl)benzoic acid], the half-maximal inhibitory concentration (IC50) was in the range of 8 to 1000 µM.

For the compound `Cc1noc(C)c1-c1cnc2c(c1)c(-c1ccc(C(=O)O)cc1OC(F)(F)F)cn2-c1ncccc1F` [P-0182, 4-(5-(3,5-dimethylisoxazol-4-yl)-1-(3-fluoropyridin-2-yl)-1H-pyrrolo[2,3-b]pyridin-3-yl)-3-(trifluoromethoxy)benzoic acid], the IC50 was in the range of 1 to 8 µM.

For the compound `Cc1noc(C)c1-c1cnc2c(c1)c(-c1ccc(C(=O)O)cc1OC(F)(F)F)cn2-c1ncccc1Cl` [P-0183, 4-(1-(3-chloropyridin-2-yl)-5-(3,5-dimethylisoxazol-4-yl)-1H-pyrrolo[2,3-b]pyridin-3-yl)-3-(trifluoromethoxy)benzoic acid], the IC50 was 8 to 1000 µM.

`CCOc1cc(C(=O)O)cc(OCC)c1-n1cc(-c2ccc(F)cc2)c2ncc(-c3c(C)noc3C)cc21` [P-0184, 4-(6-(3,5-dimethylisoxazol-4-yl)-3-(4-fluorophenyl)-1H-pyrrolo[3,2-b]pyridin-1-yl)-3,5-diethoxybenzoic acid]: the IC50 is 1 to 8 µM.

Consider `CCOc1cc(C(=O)O)cc(OCC)c1-n1cc(-c2cccc(Cl)c2)c2ncc(-c3c(C)noc3C)cc21` [P-0185, 4-(3-(3-chlorophenyl)-6-(3,5-dimethylisoxazol-4-yl)-1H-pyrrolo[3,2-b]pyridin-1-yl)-3,5-diethoxybenzoic acid], for which the IC50 was 1 to 8 µM.

Consider `CCOc1cc(C(=O)O)cc(OCC)c1-n1cc(-c2ccc(F)cc2F)c2ncc(-c3c(C)noc3C)cc21` [P-0186, 4-(3-(2,4-difluorophenyl)-6-(3,5-dimethylisoxazol-4-yl)-1H-pyrrolo[3,2-b]pyridin-1-yl)-3,5-diethoxybenzoic acid], for which the IC50 lay in the range of 8 to 1000 µM.

As to `CCOc1cc(C(=O)O)cc(OCC)c1-n1cc(Cc2ccccn2)c2ncc(-c3c(C)noc3C)cc21` [P-0187, 4-(6-(3,5-dimethylisoxazol-4-yl)-3-(pyridin-2-ylmethyl)-1H-pyrrolo[3,2-b]pyridin-1-yl)-3,5-diethoxybenzoic acid], the IC50 lay within 8 to 1000 µM.

As for `Cc1noc(C)c1-c1cnc2c(c1)c(-c1ccc(C(=O)O)cc1OC(F)(F)F)cn2-c1ccccc1` [P-0188, 4-(5-(3,5-dimethylisoxazol-4-yl)-1-phenyl-1H-pyrrolo[2,3-b]pyridin-3-yl)-3-(trifluoromethoxy)benzoic acid], the IC50 fell in the range of 1 to 8 µM.

For `Cc1ccncc1-n1cc(-c2ccc(C(=O)O)cc2OC(F)(F)F)c2cc(-c3c(C)noc3C)cnc21` [P-0189, 4-(5-(3,5-dimethylisoxazol-4-yl)-1-(4-methylpyridin-3-yl)-1H-pyrrolo[2,3-b]pyridin-3-yl)-3-(trifluoromethoxy)benzoic acid], the IC50 lay in the range of 8 to 1000 µM.

On to `CCOc1cc(C(=O)O)cc(OCC)c1-n1cc(CC2CCC2)c2ncc(-c3c(C)nnn3C)cc21` [P-0190, 4-(3-(cyclobutylmethyl)-6-(1,4-dimethyl-1H-1,2,3-triazol-5-yl)-1H-pyrrolo[3,2-b]pyridin-1-yl)-3,5-diethoxybenzoic acid], for which the IC50 lay within 1 to 8 µM.

Take `Cc1noc(C)c1-c1cnc2c(c1)c(-c1ccc(C(=O)O)cc1OC(F)(F)F)cn2CCN1CCOCC1` [P-0191, 4-(5-(3,5-dimethylisoxazol-4-yl)-1-(2-morpholinoethyl)-1H-pyrrolo[2,3-b]pyridin-3-yl)-3-(trifluoromethoxy)benzoic acid]: the IC50 fell in the range of 8 to 1000 µM.

`CCOc1cc(C(=O)O)cc(OCC)c1-n1cc(-c2ccc(C3CC3)nc2)c2ncc(-c3c(C)noc3C)cc21` [P-0192, 4-(3-(6-cyclopropylpyridin-3-yl)-6-(3,5-dimethylisoxazol-4-yl)-1H-pyrrolo[3,2-b]pyridin-1-yl)-3,5-diethoxybenzoic acid]: the IC50 lay in the range of 1 to 8 µM.
